Experimental data published in PubChem BioAssay (NCI).
Where “and” joins values, the source holds several entries; their conditions need not be identical. Equal entries are not always repeated.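 96-well plates; 48 h exposure; 5 concentrations. Endpoints by linear interpolation between flanking doses. Not reached: highest tested concentration assigned. Here, GI50 denotes the concentration required for 50% inhibition of growth. At the TGI there is no net growth.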

These molecules were tested on MDA-MB-468 breast (assay: NCI anticancer screen, dose series, 48 h).

| Structure (SMILES) | GI50 | TGI |
| --- | --- | --- |
| COc1cccc(C2C(C#N)=C(N)Oc3cc(N)ccc32)c1 (centres undefined) | 0.282 µM | 0.987 µM |
| CC1/C=C/C=C/C=C/C=C/C=C/C=C/C=C/C(O[C@@H]2O[C@H](C)[C@H](O)[C@@H](O)[C@@H]2N)CC(O)C(C(=O)O)C(O)CC(=O)CC(O)CC(O)CC(O)CC(=O)CCCC(=O)CC(=O)OC1C(C)CC(C)C(O)CC(=O)c1ccc(N)cc1 (some centres undefined) | 0.0492 µM and 0.223 µM | 0.0989 µM and 0.723 µM |
| C=C(C)[C@@H]1CC[C@]2(C)[C@H](C(=O)C=C3[C@@H]4C[C@](C)(C(=O)N5CCN(C)CC5)CC[C@]4(C)CC[C@]32C)[C@@]1(C)CCC#N | 5.92 µM | 13.2 µM |
| O=[N+]([O-])c1ccc(-c2nc(-c3ccccc3)c(-c3ccccc3)n2-c2ccccc2)cc1 | 3.77 µM | 12.7 µM |
| COc1ccc(Nn2c(SCC(=O)Nc3nc(-c4ccc(Cl)cc4)cs3)nc(C)c2C)cc1 | 0.574 µM | 7.73 µM |
| CC(=O)Nc1ccc(Sc2ccc([N+](=O)[O-])o2)cc1 | 0.933 µM | 2.81 µM |
| CCCCCCCC/C=C/CCCCCCCC1=NCC[N+]1(CCO)CCO | 1.78 µM | 4.56 µM |
| CCCCCCCCCCCCCCCCCC1=NCCN1CS(=O)(=O)O | 16.1 µM | 33.8 µM |
| N#Cc1c(-c2ccc(Cl)cc2)n(O)c2ccccc12 | 1.63 µM | 4.71 µM |
| C=C1C[C@](OC)([C@H](O)C(=O)N[C@@H](OC)[C@@H]2C[C@@H](O)C(C)(C)[C@@H](C[C@@H](COC)OC)O2)O[C@H](C)[C@@H]1C | 0.000941 µM | 0.00348 µM |
| CN(C)c1ccc(/C=C(/NC(=O)c2ccccc2)c2nc3ccc(Cl)cc3[nH]2)cc1 | 20.5 µM | 70.5 µM |
| NCCCNc1nc2ccccc2c2c(=O)c3cc(C(F)(F)F)ccc3sc12 | 1.53 µM | 2.99 µM |
| COc1cc(/C=C/c2cc(/C=C/c3ccc(O)c(OC)c3)n(-c3c(C)cccc3C)c(=O)n2)ccc1O | 0.835 µM | 3.61 µM |
| CC(=O)N1CC(Nc2ccc(OC(F)(F)F)cc2)=CC1=O | 0.662 µM | 4.74 µM |
| CN1CCCNc2c(c(=O)c2=O)NCCCN(C)CCCNc2c(c(=O)c2=O)NCCCN(C)CCCNc2c(c(=O)c2=O)NCCCN(C)CCCNc2c(c(=O)c2=O)NCCCN(C)CCCNc2c(c(=O)c2=O)NCCCN(C)CCCNc2c(c(=O)c2=O)NCCCN(C)CCCNc2c(c(=O)c2=O)NCCC1 | 2 µM | 12 µM |
| COc1cc(C)c(-c2ccc(=O)c(OC)cc2C)c(OC)c1OC | > 100 µM and 14 µM | > 100 µM |
| COc1cc(NCCCCN=C(N)NC(N)=NC(C)C)c2ncccc2c1 | 0.106 µM | 0.435 µM |
| CCC(C)n1cc(C)c2c(C(=O)NCc3c(C)cc(C)[nH]c3=O)cc(Br)cc21 (centres undefined) | 22.8 µM | > 100 µM |
| CCN(CC)c1cc(/C=C/c2ccc(OC)c(OC)c2)nc2cc(F)c(F)cc12 | 2.49 µM | 10.3 µM |

| Structure (SMILES) | GI50 | TGI |
| --- | --- | --- |
| CCOc1ccc([C@@H]2[C@@H](Oc3ccccc3)C(=O)N2c2cc(OC)c(OC)c(OC)c2)cc1 | 0.0459 µM | > 100 µM |
| COc1ccccc1-n1c(-c2cc(O)ccc2C)cn2c3c(=O)[nH]c(=O)n(C)c3nc12 | 15.6 µM | > 100 µM |
| Cc1cc2cc3cc(C)c(N(C)C)cc3nc2cc1N(C)C | 0.8 µM | 9.01 µM |
| Cc1nc2sccn2c(=O)c1CCN1CCC(=C(c2ccc(F)cc2)c2ccc(F)cc2)CC1 | 5.05 µM | 19 µM |
| CCCCCCCC/C=C/CCCCCCCCC1=NCCN1CCO | 10.3 µM | 26.6 µM |
| Cc1ccc(N2CCN(C3=C(Cl)C(=O)c4ncccc4C3=O)CC2)cc1 | 1.49 µM | 3.04 µM |
| ClC1=C(Cl)C(Cl)=C(Cl)C1=C/C=C/c1ccccc1 | 0.186 µM | 0.433 µM |
| CC(C)(C)c1nc2c(o1)C(=O)c1ccccc1C2=O | 0.184 µM | 0.564 µM |
| COc1ccc(C(=O)c2ccc(OC)c(OC)c2OC)cc1 | 0.696 µM | 9.94 µM |
| COC(=O)c1ccc2c(c1)nc(-c1cc3ccccc3[nH]c1=O)n2-c1cc(C(C)(C)C)[nH]n1 | 13.7 µM | > 100 µM |
| CC(C)[C@@]12C[C@@H](OC(=O)[C@H]3CO3)[C@@](C)(O1)[C@@H]1CC[C@@H](C)[C@H]1[C@@H]2OC(=O)/C=C/c1ccccc1 | 13.9 µM | 30.9 µM |
| NC(CSC(c1ccccc1)(c1ccccc1)c1ccc(Cl)cc1)C(=O)O (centres undefined) | 0.0819 µM | 4.18 µM |
| Cc1cccc(Oc2nccc(-c3c(-c4ccc(F)cc4)ncn3C3CCNCC3)n2)c1C | 2.95 µM | 6.46 µM |
| NC(=NCCCOc1ccc(Cl)cc1)Nc1ccc(Cl)cc1 | 1.71 µM | 3.78 µM |
| CC(=O)c1ccc(NC(=O)CSc2nnc(-c3cc(-c4ccc(C)cc4)nc4ccccc34)o2)cc1 | 3.54 µM | > 100 µM |
| CC(C)CCOc1ccc(-c2n[nH]c(C(F)(F)F)c2-c2cncc(C#N)c2)c(O)c1 | 1.01 µM | 4.83 µM |
| CS(=O)CCCCCN=C=S (centres undefined) | 2.68 µM | 9.94 µM |
| CCN(CC)CCCNc1cccc2c(SCc3ccccc3)ccnc12 | 1.88 µM | 3.43 µM |
